Assay results taken from publication PMC11587536 (Biochemistry, 2024).

Molecular target: MoLOX (Pyricularia oryzae, UniProt G4NAP4)
Sequence (G4NAP4 17-619 limits assumed): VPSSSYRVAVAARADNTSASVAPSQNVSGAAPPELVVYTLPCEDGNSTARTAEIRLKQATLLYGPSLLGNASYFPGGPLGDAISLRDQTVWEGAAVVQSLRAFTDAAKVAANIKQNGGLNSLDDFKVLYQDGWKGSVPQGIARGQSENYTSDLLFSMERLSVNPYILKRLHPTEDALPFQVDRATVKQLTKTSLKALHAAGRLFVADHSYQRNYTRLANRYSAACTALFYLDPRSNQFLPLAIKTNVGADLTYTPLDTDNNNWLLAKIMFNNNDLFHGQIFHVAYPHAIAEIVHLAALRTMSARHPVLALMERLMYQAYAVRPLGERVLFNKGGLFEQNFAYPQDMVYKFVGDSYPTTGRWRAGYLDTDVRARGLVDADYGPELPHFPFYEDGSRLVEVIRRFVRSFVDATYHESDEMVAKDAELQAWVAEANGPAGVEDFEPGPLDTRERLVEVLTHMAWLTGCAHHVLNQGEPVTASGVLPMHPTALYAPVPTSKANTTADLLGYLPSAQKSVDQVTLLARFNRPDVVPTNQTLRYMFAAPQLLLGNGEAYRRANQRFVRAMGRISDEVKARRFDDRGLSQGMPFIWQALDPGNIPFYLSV

For `CC/C=C\C/C=C\C/C=C\CCCCCCCC(=O)O` [αLA, alpha linolenic], the “O2 electrode, steady-state kinetics” value was “WT MoLOX reacts nearly twice as fast with αLA as with LA”.
